# Values of other authors as cited in US20250257300A1, “MICROTITER-PLATE-BASED HIGH THROUGHPUT PERFUSION BIOREACTOR” (THE GEORGE WASHINGTON UNIVERSITY, priority 2022, published 2025).
# Tested on: Pseudomonas aeruginosa biofilms
# Conditions: Pseudomonas aeruginosa biofilms growing on urinary catheters vs planktonic cells
compound,measurement,value
NC[C@H]1O[C@H](O[C@H]2[C@H](O)[C@@H](O[C@H]3O[C@H](CO)[C@@H](O)[C@H](N)[C@H]3O)[C@H](N)C[C@@H]2N)[C@H](N)C[C@@H]1O [tobramycin],resistance of biofilms to tobramycin relative to planktonic cells,1000 times
